According to PMC11768481 (Pharmaceuticals, 2024):
Like-named read-outs stand apart in the source and are kept apart here.

Experiments:
[1] = system: HFF-1 cells; assay: HFF-1 host cell growth after 5 days (Trypan blue exclusion count); format: cell-based, human; conditions: for IC50: Homo sapiens, HFF-1, 120 h, monotherapy, HFF-1 growth, 5 days, read-out: IC50 Monotherapy HFF-1 (n = 3)
Protocol: For HFF-1 IC50 evaluation, BNZ and the antidiabetic were varied as described above for the infection cultures, and cell proliferation was determined on the 5th day of growth, and the viability was determined by 0.2% Trypan blue exclusion (Corning Inc.; Corning, NY, USA). Briefly, the cells were washed twice with PBS-EDTA and later trypsinized for detachment. The cell suspension was homogenized with 150 µL of DMEM + 2% FBS, and an aliquot of 50 µL was diluted 1:1 with the solution of Trypan blue. The number of viable cells was counted using a Neubauer chamber under a microscope.
(§1) For the IC50 calculation, individual data curves were fitted to the dose–response equation: y=A1+(A2−A1)/(1+10^(logx0−x)×p), where A1 < A2; p > 0; bottom asymptote: A1 = 1; top asymptote: A2 = 2; center: logx0 = −1; hill slope: p = 0.2; or logistic equation y=A2+(A1−A2)/(1+x/x0)^p, where A1 = initial value, A2 = final value, x0 = center and p = power using the Origin 8 Software. The IC50 values were manually selected from the curves fit.

[2] = system: T. cruzi epimastigotes; conditions: cited from earlier work
[3] = system: T. cruzi Querétaro strain epimastigotes; assay: Thiol metabolites (Cys, GSH, T(SH)2) in epimastigotes by HPLC; format: cell-based, Trypanosoma cruzi; conditions: 1 µM drug alone, 24 h
Protocol: Since thiol metabolite determination requires high amounts of biological material, the thiol determination content was performed in epimastigotes of the Queretaro strain. A 0.2 L culture of LIT medium was inoculated with epimastigotes at a density of 0.7 × 10^6 parasites/mL. The culture was incubated for 72 h at 28 °C, reaching, at the exponential growth phase, a concentration of 3 × 10^6 parasites/mL. The culture was separated into 8 aliquots of 25 mL, and 1 µM BNZ was added alone or in combination with 1 µM of the antidiabetic drugs. The cultures were incubated for 24 h at 28 °C. Subsequently, 1 mL of each sample was separated for protein determination, and the rest was used for thiol determination. Both samples were centrifuged at 20,817× g for 10 min; the pellets were washed twice with PBS. The pellets for protein were resuspended in 100 µL of Lowry’s solution A (2% Na2CO3, 0.4% NaOH, 0.16% Na-K tartrate, 1% SDS) and stored at −70 °C until protein determination using the Lowry method. The parasite pellets for thiol metabolite determination were immediately lysed by incubation in liquid nitrogen and stored at −70 °C.
Thiol determination was performed as described before. Cell lysates were thawed and resuspended in 90 µL of lysis buffer (20 mM Hepes, 1 mM EDTA, 0.15 mM KCl at pH 7), 20 mM DTT was added to each sample, and three cycles of freezing in liquid nitrogen and thawing at 37 °C were performed. The samples were centrifuged at 20,817× g for 10 min, and the supernatant was reduced with 2% sodium borohydride (NaBH4) and incubated for 10 min on ice. Then, perchloric acid was added at a final concentration of 3%, and the sample was centrifuged at 20,187× g for 2 min. The supernatant was filtered through a syringe-driven filter unit (0.45 µm) (Millipore; Carrigtwohill, County Cork, Ireland) and 20 µL of the eluate was injected in a high-performance liquid chromatography (HPLC) apparatus (Waters; Milford, MA, USA). The metabolites were separated in a C18 reverse-phase column (Altima, Columbia, MD, USA) using a mixture of acetonitrile—0.1% trifluoroacetic acid and a flux of 0.5 mL/min. The thiol metabolites were post-column derivatized with 0.1 mM di-thio-bis nitrobenzoic acid (DTNB), and the absorbance was detected at 412 nm with a UV-Vis detector coupled to the HPLC apparatus.

[4] = system: T. cruzi Ninoa strain; assay: Short-term monotherapy in mice infected with T. cruzi; blood trypomastigote count; format: in vivo, CD1 mice; conditions: single dose 100 mg/kg, intragastric, at peak of parasitemia, 8 h compared to time 0
Protocol: The effect of the antidiabetic drugs and BNZ in the clearance of blood trypomastigotes in mice infected with T. cruzi in acute drug treatment in monotherapy was evaluated. Trypanosoma cruzi Ninoa strain was used for these experiments; this strain is classified in the Tc1 group like the Querétaro strain [27]; Ninoa is characterized by lower virulence and therefore lower mortality in mice compared to the Querétaro strain [28]. However, epimastigotes of Ninoa strain are more resistant to BNZ [27]. Then, the T. cruzi Ninoa strain seems to be a more appropriate parasitic source to evaluate drug susceptibility in mice.
Mice of the CD1 strain were infected with Ninoa strain (MHOM/MX/1994/Ninoa) following modified protocols previously reported. Briefly, blood trypomastigotes obtained from an infected mouse were diluted with 0.9% saline solution at a density of 1 × 10^5 trypomastigotes/mL, and 0.1 mL were intraperitoneally inoculated in mice weighing 30–40 g. […] After reaching a parasitemia peak of 22 × 10^6 blood trypomastigotes/mL (12–18 days post-inoculation), the mice were separated into 5 groups of 3 mice each for drug treatment (for bioethical requirements, the number of animals used was kept at a minimum, and 3 mice per group was sufficient to perform statistical analysis). BNZ and antidiabetic drugs at a concentration of 100 mg/kg weight; doses of 3.16–3.79 mg (depending on the weight of the mice) were administered, diluted in 0.5 mL of vehicle (Arabic gum at 4%, diluted in purified water) using an intragastric tube. Then, 5 µL of blood were immediately extracted from the caudal vein (t = 0), and blood sampling was performed every 2 h up to 8 h. Trypomastigotes were counted using a modified protocol of that reported by Pizzi–Brenner, as reported before. […] The criterion for evaluating efficacy was the percentage of trypanocidal effect at 8 h compared to time 0.

[5] = parameters: method as in PMID 28673423, PMID 32592664, PMID 33043726; conditions: ref 1, 7, 8; cited from earlier work
[6] = system: T. cruzi Querétaro strain trypomastigotes; assay: In vitro infection of HFF-1 monolayers with trypomastigotes; release of trypomastigotes on the 5th day; format: cell-based; conditions: Trypanosoma cruzi; for IC50: HFF-1, monotherapy, release of trypomastigotes, Queretaro strain, 5th day, read-out: IC50 Monotherapy T. cruzi i.v. Infection
Description: To evaluate the effects of the antidiabetics alone, a model of in vitro infection with trypomastigotes of monolayers of human foreskin fibroblasts 1 (HFF-1) was used as described in the methodology; the criterium to determine efficacy was the ability to decrease the trypomastigotes’ release after the 4th–5th day post-infection. The T. cruzi Querétaro strain (TBAR/MX/0000/Querétaro) was used, which is classified in the Tc1 group, and is characterized by its high degree of virulence.
In 24-well tissue culture plates, 2 × 10^4 HFF-1 cells in 0.5 mL of DMEM + 10% FBS were deposited in each well and incubated at 37 °C for 24 h for adherence. Next, the incubation medium was changed to DMEM + 2% FBS (0.5 mL), and 3 × 10^5 trypomastigotes were added to infect cells for 2 h at 37 °C. After the incubation, the cells were vigorously washed three times with DMEM + 2% FBS to remove uninternalized trypomastigotes, taking care to preserve the monolayer integrity. Then, the infected cells were incubated in DMEM + 2% FBS for 4–5 days in the absence or presence of BNZ (0, 0.05, 0.1, 0.2, 0.5 µM) and antidiabetics (0, 1, 10, 25, 50 µM) in monotherapy; the drug compounds were purchased from SIGMA. For bi-therapy, the same concentrations of BNZ were used in the presence of 0.5 or 1 µM of antidiabetics. […] In every independent assay, a control of infected cells without BNZ or antidiabetics was always included, which served as no treatment. The number of released mobile trypomastigotes on the 5th day was determined by light microscopy using a Neubauer chamber.
as §1

[7] = system: Leishmania donovani promastigotes; parameters: method as in PMID 30827222; conditions: ref 23; cited from earlier work
[8] = system: Echinococcus granulosus; parameters: method as in PMID 29190739; conditions: monotherapy; cited from earlier work
[9] = system: Leishmania; conditions: alone; cited from earlier work
[10] = ref 15, read-out: IC50 on the growth of epimastigotes

SMILES: O=C(Cn1ccnc1[N+](=O)[O-])NCc1ccccc1 [BNZ, benznidazole]
- decrease of the growth of host cells ([1]; 0.26 µM BNZ in monotherapy): 20%
- IC50 [1]: 0.9 ± 0.09 µM
- IC50 ([2]; CLBrener strain, read-out: IC50 on growth of epimastigotes): 5.54 µM
- IC50 ([2]; Ninoa strain, read-out: IC50 on growth of epimastigotes): 8.21 µM
- IC50 ([2]; Querétaro strain, read-out: IC50 on growth of epimastigotes): 4.29 µM
- IC50 ([2]; ref 25, read-out: IC50 on the growth of epimastigotes): 12 ± 2 µM
- IC50 ([2]; ref 38, read-out: IC50 on the growth of epimastigotes): 9.4 ± 1.3 µM
- Cys level [3]: slightly decrease
- T(SH)2 level [3]: not observed
- decrease of the infection (blood trypomastigotes) [4]: 80%
- rate of treatment interruption [5]: 9–29%
- inhibition at 0.2 µM ([6]; HFF-1, read-out: inhibition of infection): 40%
- IC50 [6]: 0.26 ± 0.01 µM

SMILES: COc1ccc(Cl)cc1C(=O)NCCc1ccc(S(=O)(=O)NC(=O)NC2CCCCC2)cc1 [GBD, glyburide]
- IC50 [2, 10]: 66 µM
- growth of Leishmania donovani promastigotes [7]: decreased their growth
- Cys level [3]: increased
- GSH level [3]: decreased
- T(SH)2 level [3]: decreased
- decrease of the infection (blood trypomastigotes) [4]: 60%
- activity on Echinococcus granulosus infection in mice [8]: anti-helmintic activity
- IC50 [6]: 8.4 ± 6.3 µM
- effect on Leishmania infection [9]: decreased the infection

SMILES: COc1ccc2c(c1)C(=O)N(CCc1ccc(S(=O)(=O)NC(=O)NC3CCCCC3)cc1)C(=O)C2(C)C [GLQ, gliquidone]
- IC50 [2, 10]: 12 µM
- Cys level [3]: increased
- GSH level [3]: decreased
- T(SH)2 level [3]: decreased
- decrease of the infection (blood trypomastigotes) [4]: lower effect than BNZ
- IC50 [6]: 7.6 ± 2 µM

SMILES: Cc1cnc(C(=O)NCCc2ccc(S(=O)(=O)NC(=O)NC3CCCCC3)cc2)cn1 [GPZ, glipizide]
- IC50 [1]: 35 ± 19 µM
- IC50 [2, 10]: 13.4 µM
- Cys level [3]: decreased
- T(SH)2 level [3]: increased
- decrease in Cys [3]: ~50%
- decrease of the infection (blood trypomastigotes) [4]: 60%
- IC50 [6]: 14.3 ± 7 µM

SMILES: CC1CS(=O)(=O)CCN1/N=C/c1ccc([N+](=O)[O-])o1 (stereo not drawn) [nifurtimox]
- rate of treatment interruption [5]: 14–75%
